Measured values: BindingDB's records for doi:10.1021/acsmedchemlett.8b00532 (Sapienza University of Rome, 2019)

Test: Inhibition of NHERF1 in human SW620 cells expressing NHERF1 assessed as inhibition cell growth incubated for 72 hrs by MTT assay

IC50: 19 µM
SMILES: Cc1cc([N+](=O)[O-])ccc1NS(=O)(=O)c1cc(Cl)ccc1Cl
